Measurements from article PMC5218480 (PLoS ONE, 2017).

Test system: MV-4-11 cells
Assay: Gene expression microarray analysis (Affymetrix PrimeView) and GSEA
Type: cell-based, human
Parameters: RFU PODN (11730768_x_at) / Fold change /veh PODN (11730768_x_at) / RFU LINC00158 (11744669_a_at) / Fold change /veh LINC00158 (11744669_a_at) / RFU DUSP10 (11751237_a_at) / Fold change /veh DUSP10 (11751237_a_at) / RFU ID3 (11757404_x_at) / Fold change /veh ID3 (11757404_x_at) / RFU PLEKHG5 (11737974_s_at) / Fold change /veh PLEKHG5 (11737974_s_at) / RFU LRRC4B (11730491_at) / Fold change /veh LRRC4B (11730491_at) / RFU GIMAP4 (11747438_a_at) / Fold change /veh GIMAP4 (11747438_a_at) / RFU KRT8 (11758183_x_at) / Fold change /veh KRT8 (11758183_x_at) / RFU CNN1 (11734310_a_at) / Fold change /veh CNN1 (11734310_a_at) / RFU VPS37D (11726825_at) / Fold change /veh VPS37D (11726825_at) / RFU C10orf10 (11716522_x_at) / Fold change /veh C10orf10 (11716522_x_at) / RFU KIR2DL2 /// KIR2DL4 /// KIR2DL5A /// KIR2DL5B /// KIR2DS1 /// KIR2DS2 /// KIR2DS3 /// KIR2DS4 /// KIR3DL3 /// KIR3DL3 /// KIR3DS1 (11738374_at) / Fold change /veh KIR2DL2 /// KIR2DL4 /// KIR2DL5A /// KIR2DL5B /// KIR2DS1 /// KIR2DS2 /// KIR2DS3 /// KIR2DS4 /// KIR3DL3 /// KIR3DL3 /// KIR3DS1 (11738374_at) / RFU C1QL1 (11718748_at) / Fold change /veh C1QL1 (11718748_at) / RFU TMPRSS4 (11747572_a_at) / Fold change /veh TMPRSS4 (11747572_a_at) / RFU HAMP (11756126_x_at) / Fold change /veh HAMP (11756126_x_at) / RFU RNFT2 (11725882_a_at) / Fold change /veh RNFT2 (11725882_a_at) / RFU NR4A2 (11747474_a_at) / Fold change /veh NR4A2 (11747474_a_at) / RFU ABCC12 (11746883_a_at) / Fold change /veh ABCC12 (11746883_a_at) / RFU TMEM136 (11760407_x_at) / Fold change /veh TMEM136 (11760407_x_at) / RFU CLDN22 /// WWC2 (11732394_at) / Fold change /veh CLDN22 /// WWC2 (11732394_at) / RFU HLA-DPB1 (11760878_x_at) / Fold change /veh HLA-DPB1 (11760878_x_at) / RFU SPINT1 (11716480_a_at) / Fold change /veh SPINT1 (11716480_a_at) / RFU GAP43 (11754022_s_at) / Fold change /veh GAP43 (11754022_s_at) / RFU A4GNT (11735810_at) / Fold change /veh A4GNT (11735810_at) / RFU PRB3 (11715151_x_at) / Fold change /veh PRB3 (11715151_x_at) / RFU TUBB4B (11761932_at) / Fold change /veh TUBB4B (11761932_at) / RFU CAPN14 (11732068_a_at) / Fold change /veh CAPN14 (11732068_a_at) / RFU TMCC2 (11721928_a_at) / Fold change /veh TMCC2 (11721928_a_at) / RFU IRGQ (11745062_a_at) / Fold change /veh IRGQ (11745062_a_at) / RFU FAM174B (11720279_a_at) / Fold change /veh FAM174B (11720279_a_at) / RFU TMPRSS4 (11748680_a_at) / Fold change /veh TMPRSS4 (11748680_a_at) / RFU FAM212B (11763350_a_at) / Fold change /veh FAM212B (11763350_a_at) / RFU PLEKHG5 (11743358_a_at) / Fold change /veh PLEKHG5 (11743358_a_at) / RFU ZSCAN30 (11745921_a_at) / Fold change /veh ZSCAN30 (11745921_a_at) / RFU CMKLR1 (11741424_a_at) / Fold change /veh CMKLR1 (11741424_a_at) / RFU LOC101060620 /// MAPK8IP1 (11723275_at) / Fold change /veh LOC101060620 /// MAPK8IP1 (11723275_at) / RFU SPTSSB (11747773_x_at) / Fold change /veh SPTSSB (11747773_x_at) / RFU PRSS12 (11739890_at) / Fold change /veh PRSS12 (11739890_at) / RFU BIN1 (11741810_x_at) / Fold change /veh BIN1 (11741810_x_at) / RFU WNT11 (11732464_a_at) / Fold change /veh WNT11 (11732464_a_at) / RFU C10orf10 (11716521_a_at) / Fold change /veh C10orf10 (11716521_a_at) / RFU C5orf56 (11738089_at) / Fold change /veh C5orf56 (11738089_at) / RFU CYB561 (11721691_x_at) / Fold change /veh CYB561 (11721691_x_at) / RFU ANKRD19P (11752326_a_at) / Fold change /veh ANKRD19P (11752326_a_at) / RFU OR2T12 /// OR2T33 /// OR2T8 (11738714_s_at) / Fold change /veh OR2T12 /// OR2T33 /// OR2T8 (11738714_s_at) / RFU VCAN (11748164_a_at) / Fold change /veh VCAN (11748164_a_at) / RFU JSRP1 (11732532_at) / Fold change /veh JSRP1 (11732532_at) / RFU KRTAP10-11 (11738290_x_at) / Fold change /veh KRTAP10-11 (11738290_x_at) / RFU MYO3A (11730013_a_at) / Fold change /veh MYO3A (11730013_a_at) / RFU EBF3 (11725865_a_at) / Fold change /veh EBF3 (11725865_a_at) / RFU CAMK2N1 (11719241_x_at) / Fold change /veh CAMK2N1 (11719241_x_at) / RFU C5orf56 (11738088_a_at) / Fold change /veh C5orf56 (11738088_a_at) / RFU OLFML3 (11715873_a_at) / Fold change /veh OLFML3 (11715873_a_at) / RFU LOC100653217 /// NTM (11731650_a_at) / Fold change /veh LOC100653217 /// NTM (11731650_a_at) / RFU MAPK11 (11762145_a_at) / Fold change /veh MAPK11 (11762145_a_at) / RFU FIZ1 (11724087_x_at) / Fold change /veh FIZ1 (11724087_x_at) / RFU OASL (11726364_x_at) / Fold change /veh OASL (11726364_x_at) / RFU SOX15 (11748057_x_at) / Fold change /veh SOX15 (11748057_x_at) / RFU CD79A (11719716_a_at) / Fold change /veh CD79A (11719716_a_at) / RFU HIST1H1D (11736915_at) / Fold change /veh HIST1H1D (11736915_at) / RFU CASKIN2 (11723855_a_at) / Fold change /veh CASKIN2 (11723855_a_at) / RFU LOC730098 (11760151_x_at) / Fold change /veh LOC730098 (11760151_x_at) / RFU OR4N2 (11742367_at) / Fold change /veh OR4N2 (11742367_at) / RFU PRRT2 (11749266_a_at) / Fold change /veh PRRT2 (11749266_a_at) / RFU SNX32 (11753110_a_at) / Fold change /veh SNX32 (11753110_a_at) / RFU CDHR5 (11726645_a_at) / Fold change /veh CDHR5 (11726645_a_at) / RFU RCAN1 (11760418_a_at) / Fold change /veh RCAN1 (11760418_a_at) / RFU FAM167A (11723789_a_at) / Fold change /veh FAM167A (11723789_a_at) / RFU FAM26E (11764081_at) / Fold change /veh FAM26E (11764081_at) / RFU ISYNA1 (11749810_s_at) / Fold change /veh ISYNA1 (11749810_s_at) / RFU ACY1 (11761880_at) / Fold change /veh ACY1 (11761880_at) / RFU 11764098_at / Fold change /veh 11764098_at / RFU SAMD14 (11745864_x_at) / Fold change /veh SAMD14 (11745864_x_at) / RFU NPB (11741838_a_at) / Fold change /veh NPB (11741838_a_at) / RFU TMPRSS6 (11731388_a_at) / Fold change /veh TMPRSS6 (11731388_a_at) / RFU KRTAP10-2 (11738614_at) / Fold change /veh KRTAP10-2 (11738614_at) / RFU ARHGAP8 /// PRR5-ARHGAP8 (11727945_x_at) / Fold change /veh ARHGAP8 /// PRR5-ARHGAP8 (11727945_x_at) / RFU KRTAP5-7 /// NADSYN1 (11734609_at) / Fold change /veh KRTAP5-7 /// NADSYN1 (11734609_at) / RFU RASL12 (11751679_a_at) / Fold change /veh RASL12 (11751679_a_at) / RFU CDKN2B (11736163_a_at) / Fold change /veh CDKN2B (11736163_a_at) / RFU PRF1 (11729649_at) / Fold change /veh PRF1 (11729649_at) / RFU, ZNF638 /// ZNF638-IT1 / Fold change vs veh, ZNF638 /// ZNF638-IT1 / RFU, PANK3 / Fold change vs veh, PANK3 / RFU, SH3YL1 / Fold change vs veh, SH3YL1 / RFU, ZEB2 / Fold change vs veh, ZEB2 / RFU, NRIP1 / Fold change vs veh, NRIP1 / RFU, PTTG1IP / Fold change vs veh, PTTG1IP / RFU, CAPN2 / Fold change vs veh, CAPN2 / RFU, MED14 / Fold change vs veh, MED14 / RFU, SNORA58 / Fold change vs veh, SNORA58 / RFU, C1orf63 / Fold change vs veh, C1orf63 / RFU, LRRFIP1 / Fold change vs veh, LRRFIP1 / RFU, NDUFAF7 / Fold change vs veh, NDUFAF7 / RFU, SLC12A2 / Fold change vs veh, SLC12A2 / RFU, IBTK / Fold change vs veh, IBTK / RFU, ESF1 / Fold change vs veh, ESF1 / Fold change vs veh, TMEM50B / RFU, TAOK1 / Fold change vs veh, TAOK1 / RFU, ACBD3 / Fold change vs veh, ACBD3 / RFU, TMA16 / Fold change vs veh, TMA16 / RFU, RWDD3 / Fold change vs veh, RWDD3 / RFU, BCAT1 / Fold change vs veh, BCAT1 / RFU, EDEM3 / Fold change vs veh, EDEM3 / RFU, TMEM33 / Fold change vs veh, TMEM33 / RFU, WDR75 / Fold change vs veh, WDR75 / RFU, AHCTF1 / Fold change vs veh, AHCTF1 / RFU, TFRC / Fold change vs veh, TFRC / RFU, ZDHHC17 / Fold change vs veh, ZDHHC17 / RFU, NOM1 / Fold change vs veh, NOM1 / RFU, ARL8B / Fold change vs veh, ARL8B / RFU, ZBTB11 / Fold change vs veh, ZBTB11 / RFU, TAMM41 / Fold change vs veh, TAMM41 / RFU, KIAA1704 /// LOC100996395 / Fold change vs veh, KIAA1704 /// LOC100996395 / RFU, ING1 / Fold change vs veh, ING1 / RFU, TRMT61B / Fold change vs veh, TRMT61B / RFU, FUBP3 / Fold change vs veh, FUBP3 / RFU, TP53 / Fold change vs veh, TP53 / RFU, TNKS2 / Fold change vs veh, TNKS2 / RFU, ZFP14 / Fold change vs veh, ZFP14 / RFU, ACTR2 / Fold change vs veh, ACTR2 / RFU, PPP3R1 / Fold change vs veh, PPP3R1 / RFU, PIK3R1 / Fold change vs veh, PIK3R1 / RFU, HNRNPA1 / Fold change vs veh, HNRNPA1 / RFU, RNF170 / Fold change vs veh, RNF170 / RFU, ZNF28 / Fold change vs veh, ZNF28 / RFU, RNGTT / Fold change vs veh, RNGTT / RFU, OGT / Fold change vs veh, OGT / RFU, BRD1 / Fold change vs veh, BRD1 / RFU, MARS / Fold change vs veh, MARS / RFU, ZNF655 / Fold change vs veh, ZNF655 / RFU, FAHD1 / Fold change vs veh, FAHD1 / RFU, BDP1 / Fold change vs veh, BDP1 / RFU, LRRCC1 / Fold change vs veh, LRRCC1 / RFU, ARID1A / Fold change vs veh, ARID1A / RFU, ZNF146 / Fold change vs veh, ZNF146 / RFU, ZNF330 / Fold change vs veh, ZNF330 / RFU, GPN3 / Fold change vs veh, GPN3 / RFU, C9orf123 / Fold change vs veh, C9orf123 / RFU, N4BP2L2 / Fold change vs veh, N4BP2L2 / RFU, ARFIP1 / Fold change vs veh, ARFIP1 / RFU, FAM179B / Fold change vs veh, FAM179B / RFU, BCL10 / Fold change vs veh, BCL10 / RFU, UHRF1BP1L / Fold change vs veh, UHRF1BP1L / RFU, BET1 / Fold change vs veh, BET1 / RFU, CNOT2 / Fold change vs veh, CNOT2 / RFU, ZNF268 / Fold change vs veh, ZNF268 / Fold change vs veh, ZNF507 / RFU, DGCR2 / Fold change vs veh, DGCR2 / RFU, WDSUB1 / Fold change vs veh, WDSUB1 / Fold change vs veh, HSP90B1 /// MIR3652 / RFU, ADSS / Fold change vs veh, ADSS / RFU, GK / Fold change vs veh, GK / RFU, ZNF148 / Fold change vs veh, ZNF148 / RFU, TAF9 / Fold change vs veh, TAF9 / RFU, SLC1A5 / Fold change vs veh, SLC1A5 / RFU, SLMO2 / Fold change vs veh, SLMO2 / RFU, ABCC4 / Fold change vs veh, ABCC4 / RFU, LOC101060439 /// RAP1B / Fold change vs veh, LOC101060439 /// RAP1B / RFU, RFX7 / Fold change vs veh, RFX7 / RFU, GTPBP10 / Fold change vs veh, GTPBP10 / RFU, CNEP1R1 / Fold change vs veh, CNEP1R1 / RFU, BIVM-ERCC5 /// ERCC5 / Fold change vs veh, BIVM-ERCC5 /// ERCC5 / RFU, ILF3 / Fold change vs veh, ILF3 / RFU 11762660_at / Fold change /veh 11762660_at / RFU VCAN (11757783_s_at) / Fold change /veh VCAN (11757783_s_at) / RFU DDX43 (11728927_at) / Fold change /veh DDX43 (11728927_at) / RFU KRT8 (11758188_x_at) / Fold change /veh KRT8 (11758188_x_at) / RFU NKD1 (11759106_at) / Fold change /veh NKD1 (11759106_at) / RFU SRD5A1 (11742802_a_at) / Fold change /veh SRD5A1 (11742802_a_at) / RFU TPSAB1 /// TPSB2 (11721975_s_at) / Fold change /veh TPSAB1 /// TPSB2 (11721975_s_at) / RFU GSTM3 (11746129_a_at) / Fold change /veh GSTM3 (11746129_a_at) / RFU IL23R (11737362_x_at) / Fold change /veh IL23R (11737362_x_at) / RFU TMEM51 (11727254_a_at) / Fold change /veh TMEM51 (11727254_a_at) / RFU PIWIL2 (11732686_x_at) / Fold change /veh PIWIL2 (11732686_x_at) / RFU ORM1 (11744905_x_at) / Fold change /veh ORM1 (11744905_x_at) / RFU CCDC152 (11743942_at) / Fold change /veh CCDC152 (11743942_at) / RFU ECM1 (11717891_a_at) / Fold change /veh ECM1 (11717891_a_at) / RFU IL23R (11748794_a_at) / Fold change /veh IL23R (11748794_a_at) / RFU TNFAIP8L3 (11732012_x_at) / Fold change /veh TNFAIP8L3 (11732012_x_at) / RFU MBOAT4 (11741988_at) / Fold change /veh MBOAT4 (11741988_at) / RFU 11764193_at / Fold change /veh 11764193_at / RFU TMEM53 (11763286_at) / Fold change /veh TMEM53 (11763286_at) / RFU MAGEB2 (11727129_at) / Fold change /veh MAGEB2 (11727129_at) / RFU TMEM200A (11744735_a_at) / Fold change /veh TMEM200A (11744735_a_at) / RFU CCDC152 (11751479_a_at) / Fold change /veh CCDC152 (11751479_a_at) / RFU FAM211A (11726209_a_at) / Fold change /veh FAM211A (11726209_a_at) / RFU RGS16 (11746705_a_at) / Fold change /veh RGS16 (11746705_a_at) / RFU VCAN (11755009_s_at) / Fold change /veh VCAN (11755009_s_at) / RFU RHOB (11743442_s_at) / Fold change /veh RHOB (11743442_s_at) / RFU RGS16 (11720943_a_at) / Fold change /veh RGS16 (11720943_a_at) / RFU RGS16 (11720944_at) / Fold change /veh RGS16 (11720944_at) / RFU, VPS4B / Fold change vs veh, VPS4B / RFU, CREB1 / Fold change vs veh, CREB1 / RFU, DNAJC13 / Fold change vs veh, DNAJC13 / RFU, GNAQ / Fold change vs veh, GNAQ / RFU, CDK5R1 / Fold change vs veh, CDK5R1 / RFU, ZRANB3 / Fold change vs veh, ZRANB3 / RFU, CUL4A / Fold change vs veh, CUL4A / RFU, CCNY / Fold change vs veh, CCNY / RFU, UFL1 / Fold change vs veh, UFL1 / RFU, COG3 / Fold change vs veh, COG3 / RFU, DIAPH2 / Fold change vs veh, DIAPH2 / RFU, SKA2 / Fold change vs veh, SKA2 / RFU, AFF3 / Fold change vs veh, AFF3 / RFU, LMF1 / Fold change vs veh, LMF1 / RFU, IPO11 / Fold change vs veh, IPO11 / RFU, DFFB / Fold change vs veh, DFFB / RFU, FOXP1 / Fold change vs veh, FOXP1 / RFU, CARD8 / Fold change vs veh, CARD8 / RFU, STRN3 / Fold change vs veh, STRN3 / RFU, ADK / Fold change vs veh, ADK / RFU, RASSF2 / Fold change vs veh, RASSF2 / RFU, WIPF1 / Fold change vs veh, WIPF1 / RFU, LARP1B / Fold change vs veh, LARP1B / RFU, RASA1 / Fold change vs veh, RASA1 / RFU, RB1 / Fold change vs veh, RB1 / RFU, PPFIA1 / Fold change vs veh, PPFIA1 / RFU, MAT2A / Fold change vs veh, MAT2A / RFU, CCT5 / Fold change vs veh, CCT5 / RFU, WDR92 / Fold change vs veh, WDR92 / RFU, CUX1 / Fold change vs veh, CUX1 / RFU, TTC7A / Fold change vs veh, TTC7A / RFU, TMEM135 / Fold change vs veh, TMEM135 / RFU, DEPTOR / Fold change vs veh, DEPTOR / RFU, CPM / Fold change vs veh, CPM / RFU, DNAJB6 / Fold change vs veh, DNAJB6 / RFU, CACNA2D3 / Fold change vs veh, CACNA2D3 / RFU, DTX4 / Fold change vs veh, DTX4 / RFU, TFCP2 / Fold change vs veh, TFCP2 / RFU, GMCL1 /// GMCL1P1 / Fold change vs veh, GMCL1 /// GMCL1P1 / RFU, AEBP2 / Fold change vs veh, AEBP2 / RFU, SNHG1 /// SNORD22 /// SNORD25 /// SNORD26 /// SNORD27 /// SNORD28 /// SNORD29 /// SNORD31 / Fold change vs veh, SNHG1 /// SNORD22 /// SNORD25 /// SNORD26 /// SNORD27 /// SNORD28 /// SNORD29 /// SNORD31 / Fold change (Aza/veh), C12orf56 (ProbeSet 11735607_a_at) / Fold change (ACY-1035/veh), C12orf56 (ProbeSet 11735607_a_at) / Fold change (Aza/veh), FGFR1OP (ProbeSet 11751329_s_at) / Fold change (ACY-1035/veh), FGFR1OP (ProbeSet 11751329_s_at) / Fold change (Aza/veh), VPS36 (ProbeSet 11739960_a_at) / Fold change (ACY-1035/veh), VPS36 (ProbeSet 11739960_a_at) / RFU SYPL1 (11715823_x_at) / Fold change /veh SYPL1 (11715823_x_at) / RFU IGFBP7 (11715501_s_at) / Fold change /veh IGFBP7 (11715501_s_at) / RFU REEP3 (11722064_at) / Fold change /veh REEP3 (11722064_at) / RFU IGLL1 (11728026_x_at) / Fold change /veh IGLL1 (11728026_x_at): dose or concentration left out as unconfirmed
Settings: MV-4-11 cells, 48 hours

## Nc1ccc(-c2cccs2)cc1NC(=O)c1ccc2c(c1)cc(C1CC1)n2CCN1CCOCC1 [ACY-1035]
  Fold change /veh NPB (11741838_a_at): 0.93
